One experiment deals with HCT-116 Firefly-luciferase reporter cells. The experiment is described as follows: Cellular c-MYC Reporter Assay. As to conditions: Homo sapiens, HCT-116, 24 h, read-out: pIC50 (converted). It counts as cell-based. In short, it runs like this:
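Compound exposure lasted 24 h at 37 °C, 5% CO2, in complete McCoy's 5A medium containing 0.2% DMSO, beginning 4–6 h post-seeding (5e4 cells/mL). Firefly luciferase signal measured by luminescence after 10 min ONE-Glo development at room temperature.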
A general note: A reporter such as luciferase makes a cellular process visible.
As to `Cc1cccc2ccnc(N(C(=O)c3ccc(-n4ncnn4)cc3)[C@@H]3CCCNC3)c12` [Example 234, (R)—N-(8-methylisoquinolin-1-yl)-N-(piperidin-3-yl)-4-(2H-tetrazol-2-yl)benzamide], the IC50 was 398 nM.

Still in this experiment, the particulars now being: Homo sapiens; untitled table following Table 8a; HCT-116 Firefly-luciferase reporter cells, 24 h; read-out: pIC50 (converted).
On to `Cc1cccc2ccnc(N(C(=O)c3ccc(-n4nnc5cccnc54)cc3)[C@H]3CCNC3)c12` [Example 231, (S)-4-(3H-[1,2,3]triazolo[4,5-b]pyridin-3-yl)-N-(8-methylisoquinolin-1-yl)-N-(pyrrolidin-3-yl)benzamide], for which the IC50 was more than 20000 nM.
As to `Cc1cccc2ccnc(N(C(=O)c3ccc(-n4nnc5cccnc54)cc3)[C@@H]3CCNC3)c12` [Example 232, (R)-4-(3H-[1,2,3]triazolo[4,5-b]pyridin-3-yl)-N-(8-methylisoquinolin-1-yl)-N-(pyrrolidin-3-yl)benzamide], the IC50 was 8510 nM.
The same measure, in the same setting: the figure for `Cc1cccc2ccnc(N(C(=O)c3ccc(-c4cccnc4)cc3)[C@@H]3CCCNC3)c12` [Example 233, (R)—N-(8-methylisoquinolin-1-yl)-N-(piperidin-3-yl)-4-(pyridin-3-yl)benzamide] is 708 nM; for `Cc1cccc2ccnc(N(C(=O)c3ccc(-n4nccn4)cc3)[C@@H]3CCCNC3)c12` [Example 235, (R)—N-(8-methylisoquinolin-1-yl)-N-(piperidin-3-yl)-4-(2H-1,2,3-triazol-2-yl)benzamide] it is 8510 nM; for `Cc1cn(-c2ccc(C(=O)N(c3nccc4cccc(C)c34)[C@@H]3CCCNC3)cc2)nn1` [Example 236, (R)-4-(4-methyl-1H-1,2,3-triazol-1-yl)-N-(8-methylisoquinolin-1-yl)-N-(piperidin-3-yl)benzamide] it is 166 nM.
Take `Cc1cccc2ccnc(N(C(=O)c3ccc(-c4cccnn4)cc3)[C@@H]3CCCNC3)c12` [Example 237, (R)—N-(8-methylisoquinolin-1-yl)-N-(piperidin-3-yl)-4-(pyridazin-3-yl)benzamide]: the IC50 is 589 nM.
As for `Cc1cccc2ccnc(N(C(=O)c3ccc(-c4cnccn4)cc3)[C@@H]3CCCNC3)c12` [Example 238, (R)—N-(8-methylisoquinolin-1-yl)-N-(piperidin-3-yl)-4-(pyrazin-2-yl)benzamide], the IC50 is 240 nM.
The same measure, in the same setting: the figure for `Cc1cccc2ccnc(N(C(=O)c3ccc(-c4cnn(C)c4)cc3)[C@@H]3CCCNC3)c12` [Example 239, (R)-4-(1-methyl-1H-pyrazol-4-yl)-N-(8-methylisoquinolin-1-yl)-N-(piperidin-3-yl)benzamide] is 437 nM.
For the compound `Cc1cccc2ccnc(N(C(=O)c3ccc(-n4nnc5cccnc54)cc3)[C@@H]3CCCNC3)c12` [Example 241, (R)-4-(3H-[1,2,3]triazolo[4,5-b]pyridin-3-yl)-N-(8-methylisoquinolin-1-yl)-N-(piperidin-3-yl)benzamide], the IC50 was 60.3 nM.
As for `Cc1cccc2ccnc(N(C(=O)c3ccc(-n4nnc5cccnc54)cc3F)[C@@H]3CCCNC3)c12` [Example 242, (R)-4-(3H-[1,2,3]triazolo[4,5-b]pyridin-3-yl)-2-fluoro-N-(8-methylisoquinolin-1-yl)-N-(piperidin-3-yl)benzamide], the IC50 was 38 nM.
Same read-out and setting: the figure for `Cc1cccc2ccnc(N(C(=O)c3ccc(-n4nnc5cccnc54)cn3)[C@@H]3CCCNC3)c12` [Example 244, (R)-5-(3H-[1,2,3]triazolo[4,5-b]pyridin-3-yl)-N-(8-methylisoquinolin-1-yl)-N-(piperidin-3-yl)picolinamide] is 107 nM.
`Cc1cccc2ccnc(N(C(=O)c3ccc(-n4nnc5cccnc54)nc3)[C@@H]3CCCNC3)c12` [Example 245, (R)-6-(3H-[1,2,3]triazolo[4,5-b]pyridin-3-yl)-N-(8-methylisoquinolin-1-yl)-N-(piperidin-3-yl)nicotinamide]: the IC50 was 155 nM.
As for `O=C(c1ccc(-n2nnc3cccnc32)cc1F)N(c1nccc2cccc(Cl)c12)[C@@H]1CCCNC1` [Example 246, (R)-4-(3H-[1,2,3]triazolo[4,5-b]pyridin-3-yl)-N-(8-chloroisoquinolin-1-yl)-2-fluoro-N-(piperidin-3-yl)benzamide], the IC50 is 33.1 nM.
Regarding `CN(C)C(=O)c1cccnc1N(C(=O)c1ccc(-n2nnc3cccnc32)cc1F)[C@@H]1CCCNC1` [Example 247, (R)-2-(4-(3H-[1,2,3]triazolo[4,5-b]pyridin-3-yl)-2-fluoro-N-(piperidin-3-yl)benzamido)-N,N-dimethylnicotinamide], the IC50 is 5010 nM.
`Cn1cnc2ccnc(N(C(=O)c3ccc(-n4nnc5cccnc54)cc3F)[C@@H]3CCCNC3)c21` [Example 248, (R)-4-(3H-[1,2,3]triazolo[4,5-b]pyridin-3-yl)-2-fluoro-N-(3-methyl-3H-imidazo[4,5-c]pyridin-4-yl)-N-(piperidin-3-yl)benzamide]: the IC50 is 851 nM.
Regarding `O=C(c1ccc(-n2nnc3cccnc32)cc1F)N(c1nccc2ncccc12)[C@@H]1CCCNC1` [Example 249, (R)-4-(3H-[1,2,3]triazolo[4,5-b]pyridin-3-yl)-2-fluoro-N-(1,6-naphthyridin-5-yl)-N-(piperidin-3-yl)benzamide], the IC50 was 1410 nM.
The same measure, in the same setting: as for `Cc1cccc2ccnc(N(C(=O)N3CCC(c4cc(C(F)F)no4)CC3)[C@@H]3CCCNC3)c12` [Example 250, (R)-4-(3-(difluoromethyl)isoxazol-5-yl)-N-(8-methylisoquinolin-1-yl)-N-(piperidin-3-yl)piperidine-1-carboxamide], the figure is 813 nM; as for `Cc1cn(-c2ccc(C(=O)N(c3nccc4cccc(C)c34)[C@@H]3CCCNC3)c(F)c2)nn1` [Example 251, (R)-2-fluoro-4-(4-methyl-1H-1,2,3-triazol-1-yl)-N-(8-methylisoquinolin-1-yl)-N-(piperidin-3-yl)benzamide], 67.6 nM; as for `Cc1cnc(N(C(=O)c2ccc(-n3nnc4cccnc43)cc2F)[C@@H]2CCCNC2)c2c(C)cccc12` [Example 252, (R)-4-(3H-[1,2,3]triazolo[4,5-b]pyridin-3-yl)-N-(4,8-dimethylisoquinolin-1-yl)-2-fluoro-N-(piperidin-3-yl)benzamide], 1410 nM.
Turning to `Cc1ccc(C)c2c(N(C(=O)c3ccc(-n4nnc5cccnc54)cc3F)[C@@H]3CCCNC3)nccc12` [Example 253, (R)-4-(3H-[1,2,3]triazolo[4,5-b]pyridin-3-yl)-N-(5,8-dimethylisoquinolin-1-yl)-2-fluoro-N-(piperidin-3-yl)benzamide], the IC50 was 115 nM.
Consider `Cc1cc(C)c2c(N(C(=O)c3ccc(-n4nnc5cccnc54)cc3F)[C@@H]3CCCNC3)nccc2c1` [Example 254, (R)-4-(3H-[1,2,3]triazolo[4,5-b]pyridin-3-yl)-N-(6,8-dimethylisoquinolin-1-yl)-2-fluoro-N-(piperidin-3-yl)benzamide], for which the IC50 was 61.7 nM.
As to `Cc1cn(C)c2c(N(C(=O)c3ccc(-n4nnc5cccnc54)cc3F)[C@@H]3CCCNC3)nccc12` [Example 255, (R)-4-(3H-[1,2,3]triazolo[4,5-b]pyridin-3-yl)-N-(1,3-dimethyl-1H-pyrrolo[2,3-c]pyridin-7-yl)-2-fluoro-N-(piperidin-3-yl)benzamide], the IC50 was 100 nM.
As for `CN1CCC(C2CCN(C(=O)N(c3cc4ccccc4cn3)[C@@H]3CCCNC3)CC2)C1` (stereo partly drawn) [Example 256, N-(isoquinolin-3-yl)-4-(1-methylpyrrolidin-3-yl)-N—((R)-piperidin-3-yl)piperidine-1-carboxamide], the IC50 is 9120 nM.
With `Cc1cccc2ccnc(N(C(=O)N3CC=C(c4noc5cc(F)ccc45)CC3)[C@@H]3CCCNC3)c12` [Example 257, (R)-4-(6-fluorobenzo[d]isoxazol-3-yl)-N-(8-methylisoquinolin-1-yl)-N-(piperidin-3-yl)-3,6-dihydropyridine-1(2H)-carboxamide], the IC50 was 4170 nM.
On to `Cc1cccc2ccnc(N(C(=O)N3CCCCC3C(=O)N(C)C)[C@@H]3CCCNC3)c12` (stereo partly drawn) [Example 258, N^2,N^2-dimethyl-N^1-(8-methylisoquinolin-1-yl)-N1-((R)-piperidin-3-yl)piperidine-1,2-dicarboxamide], for which the IC50 is 7240 nM.
`Cc1cccc2ccnc(N(C(=O)N3CCCCC3c3nc4ccccc4s3)[C@@H]3CCCNC3)c12` (stereo partly drawn) [Example 259, 2-(benzo[d]thiazol-2-yl)-N-(8-methylisoquinolin-1-yl)-N—((R)-piperidin-3-yl)piperidine-1-carboxamide]: the IC50 was 8320 nM.
On the same count and under the same terms, as for `Cc1cccc2ccnc(N(C(=O)N3CCCC(CC4CCC4)C3)[C@@H]3CCCNC3)c12` (stereo partly drawn) [Example 260, 3-(cyclobutylmethyl)-N-(8-methylisoquinolin-1-yl)-N—((R)-piperidin-3-yl)piperidine-1-carboxamide], the figure is 5250 nM; as for `Cc1cccc2ccnc(N(C(=O)N3CCCC(C4CCC4)CC3)[C@@H]3CCCNC3)c12` (stereo partly drawn) [Example 261, 4-cyclobutyl-N-(8-methylisoquinolin-1-yl)-N—((R)-piperidin-3-yl)azepane-1-carboxamide], 5500 nM.
`Cc1cccc2ccnc(N(C(=O)N3CCC(c4nc(C5CC5)no4)CC3)[C@@H]3CCCNC3)c12` [Example 262, (R)-4-(3-cyclopropyl-1,2,4-oxadiazol-5-yl)-N-(8-methylisoquinolin-1-yl)-N-(piperidin-3-yl)piperidine-1-carboxamide]: the IC50 was 575 nM.
Turning to `Cc1cccc2ccnc(N(C(=O)N3CCC(c4nc(-c5ccccc5)no4)CC3)[C@@H]3CCCNC3)c12` [Example 263], the IC50 was 1260 nM.
With `Cc1cccc2ccnc(N(C(=O)N3CCN(c4nsc5ccccc45)CC3)[C@@H]3CCCNC3)c12` [Example 264, (R)-4-(benzo[d]isothiazol-3-yl)-N-(8-methylisoquinolin-1-yl)-N-(piperidin-3-yl)piperazine-1-carboxamide], the IC50 is 3980 nM.
Same read-out and setting: as for `Cc1cccc2ccnc(N(C(=O)N3CCC4(CC3)OCCc3ccsc34)[C@@H]3CCCNC3)c12` [Example 265, (R)—N-(8-methylisoquinolin-1-yl)-N-(piperidin-3-yl)-4′,5′-dihydrospiro[piperidine-4,7′-thieno[2,3-c]pyran]-1-carboxamide], the figure is 5750 nM.

(Values after patent publication US20240400555A1 (Initial Therapeutics, Inc., priority 2023, published 2024).)
